In article PMC5295395, “Inhibition of PlexA1-mediated brain tumor growth and tumor-associated angiogenesis using a transmembrane domain targeting peptide” (Oncotarget, 2016):

Columns and labels:
[1] = system: U373MG tumors in nude mice; experiment: heterotopic U373MG xenograft in nude mice; type: in vivo, human cells in mouse
Experimental: Supplementary Figure S6: The anti-tumor effect of MTP-PlxA1 was verified in U373MG human GBM line. […]
(Stable Disease) and 62.5% PR (Partial Response).

NCH644 cells = experiment: sphere forming assay, NCH644 glioma stem cells; type: cell-based, human; details: NCH644, 10^−9 M
Experimental: Mounting evidence supports a crucial role of cancer stem cells in the initiation or relapse of tumors. This is particularly the case for gliomas. Thus, we decided to evaluate to what extent MTP-PlexA1 would affect glioma stem cell (GSC) growth. To this end, we used the NCH644 human cell line derived from a patient biopsy. […] We next performed a sphere forming assay in which cells were plated into 96-well plates at a low density (30 cells per well) to monitor production of clones from individual cells growing as non-adherent gliomaspheres. A minimum of 30 cells per well was required to allow sufficient sphere production (composed of at least 8 cells) in a time frame compatible with drug testing. Visual control of sphere formation on a daily basis confirmed that cellular edifices were arising from single cells and not due to cell clumping. […] To address whether this inhibitory effect is sufficient to impede tumor development in vivo we performed a xenograft experiment. […]
Cells were stained with an orange fluorescent dye (CMRA orange, Molecular Probe) to facilitate monitoring of individual cell and sphere counting. […] The sphere forming rate was calculated by dividing the number of sphere at day 4 per the real number of cells at day one in a given well.

VEGFR-2 phosphorylation = experiment: ELISA of VEGFR-2 phosphorylation in HUVEC cells; type: cell-based, human; details: VEGF 100 ng/ml
Experimental: (§1) (C) Rac-1 activation assay in resting condition and after Sema3A-induced Rac-1 activation in U373 MG cells. (D) Western blot analysis of phosphorylated Akt, total Akt and tubulin in U373MG cells treated with the vehicle (LDS 72 μM), Sema3A (100 ng/ml) or Sema3A + MTP-PlexA1 (10^−7 M). The lower panel is showing the quantification of the p-Akt/Akt ratio in the different conditions. (E) MTP-PlexA1 decreases VEGFR-2 phosphorylation induced by VEGF (100 ng/ml) in HUVEC cells.
(§2) PlexA1 is a Rho-GTPase activating protein. Consistently, it has been shown that in response to Sema3A, the Rho-GTPase Rac1 is activated and sequestered at the plasma membrane. […] Moreover, it has been shown that Sema3A inhibits Akt phosphorylation through binding of Rnd1 to PlexA1. […] From these experiments we concluded that MTP-PlexA1 is able to antagonize major signaling pathways of PlexA1 receptor.

Rac1 = experiment: ELISA-based Rac1 activation assay in U373MG cells; type: cell-based, human
Experimental: as §1, §2

U373MG cells = experiment: U373MG cell proliferation; type: cell-based, human
[2] = system: chick chorio-allantoic membrane blood vessels; experiment: chick embryonic chorio-allantoic membrane assay; type: in vivo; details: chick CAM, local deposition, 10^−7 M, 24 h incubation
Experimental: The CAM assay was performed using Leghorn eggs. After 4 days incubation at 37°C, the shells were opened and the embryos were transferred to a Petri dish. The CAMs were grown for additional 4 days before deposition of silicone reservoirs in a region containing one large vessel. Reservoirs were filled with 20 μl VEGF165 solution (20 μg/ml) or a combination of VEGF165 (20 μg/ml) + MTP-PlexA1 (10–7 M). After 24 h incubation, micro- photographs were taken for quantification of vessel growth. Camera lucida drawing was systematically performed to allow better counting of blood vessels and sprouting; the entire analysis being performed in blind conditions.

[3] = U373MG, waterfall best response, RECIST criteria

TLPAIVGIGGGGGLLLLVIVAVLIAYKRK [MTP-PlexA1, synthetic transmembrane peptide mimicking the TMD of PlexA1]
change of endpoint tumor weight ([1]; U373MG flank graft, daily i.p., 10–7 M, p = 0.0044): −44% | mice responding to the treatment [1, 3]: 100% | mice with PR (Partial Response) [1, 3]: 62.5% | mice with SD (Stable Disease) [1, 3]: 37.5% | decrease of sphere forming ability (NCH644 cells; 4 days, 30 cells per well, p = 0.0015, Student T test): 33.3% | sphere formation relative to vehicle (NCH644 cells; vehicle = 100% +/− 9.7%): 66.7% +/− 5.2 | change of VEGF-induced phosphorylation of VEGFR-2 (VEGFR-2 phosphorylation): −26% | Rac1 activity, Sema3A-induced (Rac1; Sema3A-induced): significantly inhibited | Rac1 activity in the absence of ligand (Rac1; resting condition): not affecting | U373MG cell proliferation, dose dependence (U373MG cells): dose-dependent reduction | change of U373MG cell proliferation, maximal effect (U373MG cells; at 10–7 M, p < 0.0001, Mann Whitney): –25% | VEGFA-induced vascular growth and complexity [2]: significantly inhibited
